From ChEMBL document CHEMBL1141161, “Structure of aldehyde reductase holoenzyme in complex with the potent aldose reductase inhibitor fidarestat: implications for inhibitor binding and selectivity” (J Med Chem, 2005)

Molecular target: T1, Aldo-keto reductase family 1 member A1 (Sus scrofa, UniProt P50578)
T1 sequence (P50578 whole entry): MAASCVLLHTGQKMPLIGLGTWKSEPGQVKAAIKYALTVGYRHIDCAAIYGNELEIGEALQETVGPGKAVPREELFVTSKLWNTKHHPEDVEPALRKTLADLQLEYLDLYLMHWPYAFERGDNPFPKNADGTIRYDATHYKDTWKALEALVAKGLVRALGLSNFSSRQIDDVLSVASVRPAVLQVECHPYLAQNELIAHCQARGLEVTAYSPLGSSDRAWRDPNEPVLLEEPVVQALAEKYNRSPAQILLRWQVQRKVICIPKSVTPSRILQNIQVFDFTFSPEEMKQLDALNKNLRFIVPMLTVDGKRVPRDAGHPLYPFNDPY
Assay: Inhibitory concentration against porcine ALR1 Aldehyde reductase using DL-glyceraldehyde

Structure (SMILES)	IC50
NC(=O)[C@H]1C[C@]2(NC(=O)NC2=O)c2cc(F)ccc2O1	17.8 µM
NC(=O)[C@@H]1C[C@]2(NC(=O)NC2=O)c2cc(F)ccc2O1	2.5 µM
